Experiment [1] deals with T1, beta-catenin/TCF4 engagement (Homo sapiens, UniProt P35222).
T1 construct: expressed in transfected cells; host or cells: HEK293
T1 sequence (P35222 1-781): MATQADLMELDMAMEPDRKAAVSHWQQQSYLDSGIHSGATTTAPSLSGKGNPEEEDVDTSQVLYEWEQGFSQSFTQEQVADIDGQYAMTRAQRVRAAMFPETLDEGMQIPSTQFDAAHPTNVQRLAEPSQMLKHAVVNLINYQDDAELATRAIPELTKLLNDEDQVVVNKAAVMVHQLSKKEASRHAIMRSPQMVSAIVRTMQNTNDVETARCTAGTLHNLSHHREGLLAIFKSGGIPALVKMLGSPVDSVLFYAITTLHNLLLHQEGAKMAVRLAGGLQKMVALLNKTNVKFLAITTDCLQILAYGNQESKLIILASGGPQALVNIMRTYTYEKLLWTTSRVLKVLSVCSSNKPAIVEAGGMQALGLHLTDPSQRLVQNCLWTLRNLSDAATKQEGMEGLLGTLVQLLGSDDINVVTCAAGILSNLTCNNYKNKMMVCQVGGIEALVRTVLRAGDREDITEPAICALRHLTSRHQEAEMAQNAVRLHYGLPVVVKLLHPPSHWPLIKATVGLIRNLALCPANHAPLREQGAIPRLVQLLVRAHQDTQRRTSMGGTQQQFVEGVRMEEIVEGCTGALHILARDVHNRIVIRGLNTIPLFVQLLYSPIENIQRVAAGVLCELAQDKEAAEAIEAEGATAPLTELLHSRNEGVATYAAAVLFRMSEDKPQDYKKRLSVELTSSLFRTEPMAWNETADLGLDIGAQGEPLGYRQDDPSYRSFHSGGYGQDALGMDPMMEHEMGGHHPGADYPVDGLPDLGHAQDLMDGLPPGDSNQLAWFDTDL
As to the kind of experiment: Nano-BRET target engagement assay (B-cat-Halo & TCF4-Luc in HEK293 cells). Format: cell-based. The settings on record: read-out: NanoBRET Abs IC50. (In general: Bioluminescence resonance energy transfer reports proximity on the nanometre scale.)

Experiment [2] has as its target T2, full-length beta-Catenin (Uniprot ID P35222) (Homo sapiens, UniProt P35222).
T2 construct: 10 nM full-length beta-Catenin (Uniprot ID P35222)
T2 sequence (P35222 1-781): T1 sequence (P35222 1-781)
As to the kind of experiment: Fluorescence polarization IC50 (beta-catenin / 5FAM-TCF4 10-53 competition). It is filed as binding. The conditions noted are these: fluorescence polarization; read-out: beta-Catenin FP IC50. (In general: In fluorescence polarisation assays a small probe gives low polarisation when free and higher when bound to something large.)

This passage reports IC50 results from patent US20240116985A1, “STAPLED PEPTIDES AND METHODS THEREOF” (priority 2020, published 2024).

Consider `CC(=O)N1CCC[C@]12CC=CCCCC1(CCCC=CCCCOC(=O)N3CC[C@@](C(=O)N[C@@H](Cc4ccsc4)C(=O)N[C@@H](Cc4csc5ccccc45)C(=O)N[C@@H](CCC(N)=O)C(N)=O)(C3)NC(=O)[C@H](CC(C)C)NC(=O)[C@H](Cc3ccccc3)NC(=O)[C@H](C)NC(=O)[C@H](C)NC(=O)[C@H](CCn3cc(CC(=O)O)nn3)NC(=O)[C@H](CC(=O)O)NC1=O)NC(=O)[C@H](CC(C)(C)C)NC(=O)[C@H](CC(=O)O)NC2=O` (stereo partly drawn) [I-2078, Ac-PL3-Asp-Npg-B5-Asp-[CH2CO2H]TriAzDab-Ala-Ala-Phe-Leu-PyrS2-3Thi-BztA-Gln-NH2], for which the 50% inhibitory concentration (IC50) (usually the concentration needed to halve the response being measured) in experiment [1] is 11700 nM; in experiment [2], 5 nM.
Take `CC(=O)N1CCC[C@]12CC=CCCCC1(CCCC=CCCCOC(=O)N3CC[C@@](C(=O)N[C@@H](Cc4ccsc4)C(=O)N[C@@H](Cc4csc5ccccc45)C(=O)N[C@@H](CCC(N)=O)C(N)=O)(C3)NC(=O)[C@H](CC(C)C)NC(=O)[C@H](Cc3ccccc3)NC(=O)[C@H](C)NC(=O)[C@H](C)NC(=O)[C@H](CCn3cc(C(C)(C)C(=O)O)nn3)NC(=O)[C@H](CC(=O)O)NC1=O)NC(=O)[C@H](CC(C)(C)C)NC(=O)[C@H](CC(=O)O)NC2=O` (stereo partly drawn) [I-2079, Ac-PL3-Asp-Npg-B5-Asp-[CMe2CO2H]TriAzDab-Ala-Ala-Phe-Leu-PyrS2-3Thi-BztA-Gln-NH2]: the IC50 was 15100 nM in experiment [1] and 8 nM in experiment [2].
For the molecule `CC(=O)N1CCC[C@]12CC=CCCCC1(CCCC=CCCCOC(=O)N3CC[C@@](C(=O)N[C@@H](Cc4ccsc4)C(=O)N[C@@H](Cc4csc5ccccc45)C(=O)N[C@@H](CCC(N)=O)C(N)=O)(C3)NC(=O)[C@H](CC(C)C)NC(=O)[C@H](Cc3ccccc3)NC(=O)[C@H](C)NC(=O)[C@H](C)NC(=O)[C@H](CCn3cc(-c4ccccc4C(=O)O)nn3)NC(=O)[C@H](CC(=O)O)NC1=O)NC(=O)[C@H](CC(C)(C)C)NC(=O)[C@H](CC(=O)O)NC2=O` (stereo partly drawn) [I-2080, Ac-PL3-Asp-Npg-B5-Asp-[2COOHPh]TriAzDab-Ala-Ala-Phe-Leu-PyrS2-3Thi-BztA-Gln-NH2], the IC50 in experiment [1] amounted to 28800 nM; in experiment [2], 45 nM.
In the same order, the values of `CC(=O)N1CCC[C@]12CC=CCCCC1(CCCC=CCCCOC(=O)N3CC[C@@](C(=O)N[C@@H](Cc4ccsc4)C(=O)N[C@@H](Cc4csc5ccccc45)C(=O)N[C@@H](CCC(N)=O)C(N)=O)(C3)NC(=O)[C@H](CC(C)C)NC(=O)[C@H](Cc3ccccc3)NC(=O)[C@H](C)NC(=O)[C@H](C)NC(=O)[C@H](CCn3cc(-c4ccccc4C(=O)O)nn3)NC(=O)[C@H](CC(=O)O)NC1=O)NC(=O)[C@H](CC(C)(C)C)NC(=O)[C@H](CC(=O)O)NC2=O` (stereo partly drawn) [I-2081, Ac-PL3-Asp-Npg-B5-Asp-[2COOHPh]TriAzDab-Ala-Ala-Phe-Leu-PyrS2-3Thi-BztA-Gln-NH2] are 11600 nM and 13 nM.
For `CC(=O)N1CCC[C@]12CC=CCCCC1(CCCC=CCCCOC(=O)N3CC[C@@](C(=O)N[C@@H](Cc4ccsc4)C(=O)N[C@@H](Cc4csc5ccccc45)C(=O)N[C@@H](CCC(N)=O)C(N)=O)(C3)NC(=O)[C@H](CC(C)C)NC(=O)[C@H](Cc3ccccc3)NC(=O)[C@H](C)NC(=O)[C@H](C)NC(=O)[C@H](Cn3cc(CCC(=O)O)nn3)NC(=O)[C@H](CC(=O)O)NC1=O)NC(=O)[C@H](CC(C)(C)C)NC(=O)[C@H](CC(=O)O)NC2=O` (stereo partly drawn) [I-2082, Ac-PL3-Asp-Npg-B5-Asp-[CH2CH2CO2H]TriAzDap-Ala-Ala-Phe-Leu-PyrS2-3Thi-BztA-Gln-NH2] the same measures were 7700 nM and 5 nM.
As for `CC(=O)N1CCC[C@]12CC=CCCCC1(CCCC=CCCCOC(=O)N3CC[C@@](C(=O)N[C@@H](Cc4ccsc4)C(=O)N[C@@H](Cc4csc5ccccc45)C(=O)N[C@@H](CCC(N)=O)C(N)=O)(C3)NC(=O)[C@H](CC(C)C)NC(=O)[C@H](Cc3ccccc3)NC(=O)[C@H](C)NC(=O)[C@H](C)NC(=O)[C@H](Cn3cc(CC(C)(C)C(=O)O)nn3)NC(=O)[C@H](CC(=O)O)NC1=O)NC(=O)[C@H](CC(C)(C)C)NC(=O)[C@H](CC(=O)O)NC2=O` (stereo partly drawn) [I-2083, Ac-PL3-Asp-Npg-B5-Asp-[CH2CMe2CO2H]TriAzDap-Ala-Ala-Phe-Leu-PyrS2-3Thi-BztA-Gln-NH2], the figures for the half-maximal inhibitory concentration (IC50) in experiment [1] and in experiment [2] were 3700 nM and 5 nM, respectively.
As for `CC(=O)N1CCC[C@]12CC=CCCCC1(CCCC=CCCCOC(=O)N3CC[C@@](C(=O)N[C@@H](Cc4ccsc4)C(=O)N[C@@H](Cc4csc5ccccc45)C(=O)N[C@@H](CCC(N)=O)C(N)=O)(C3)NC(=O)[C@H](CC(C)C)NC(=O)[C@H](Cc3ccccc3)NC(=O)[C@H](C)NC(=O)[C@H](C)NC(=O)[C@H](Cn3cc(C(C)(C)C(=O)O)nn3)NC(=O)[C@H](CC(=O)O)NC1=O)NC(=O)[C@H](CC(C)(C)C)NC(=O)[C@H](CC(=O)O)NC2=O` (stereo partly drawn) [I-2085, Ac-PL3-Asp-Npg-B5-Asp-[CMe2CO2H]TriAzDap-Ala-Ala-Phe-Leu-PyrS2-3Thi-BztA-Gln-NH2], the concentration for half-maximal inhibition (IC50) in experiment [1] stood at 6200 nM; in experiment [2], 5 nM.
Regarding `CC(=O)N1CCC[C@]12CC=CCCCC1(CCCC=CCCCOC(=O)N3CC[C@@](C(=O)N[C@@H](Cc4ccsc4)C(=O)N[C@@H](Cc4csc5ccccc45)C(=O)N[C@@H](CCC(N)=O)C(N)=O)(C3)NC(=O)[C@H](CC(C)C)NC(=O)[C@H](Cc3ccccc3)NC(=O)[C@H](C)NC(=O)[C@H](C)NC(=O)[C@H](Cn3cc(-c4ccccc4C(=O)O)nn3)NC(=O)[C@H](CC(=O)O)NC1=O)NC(=O)[C@H](CC(C)(C)C)NC(=O)[C@H](CC(=O)O)NC2=O` (stereo partly drawn) [I-2086, Ac-PL3-Asp-Npg-B5-Asp-[2COOHPh]TriAzDap-Ala-Ala-Phe-Leu-PyrS2-3Thi-BztA-Gln-NH2], the IC50 amounted to 16400 nM in experiment [1] and 12 nM in experiment [2].
On to `CC(=O)N1CCC[C@]12CC=CCCCC1(CCCC=CCCCOC(=O)N3CC[C@@](C(=O)N[C@@H](Cc4ccsc4)C(=O)N[C@@H](Cc4csc5ccccc45)C(=O)N[C@@H](CCC(N)=O)C(N)=O)(C3)NC(=O)[C@H](CC(C)C)NC(=O)[C@H](Cc3ccccc3)NC(=O)[C@H](C)NC(=O)[C@H](C)NC(=O)[C@H](CNc3ccc(N)cc3C(=O)O)NC(=O)[C@H](CC(=O)O)NC1=O)NC(=O)[C@H](CC(C)(C)C)NC(=O)[C@H](CC(=O)O)NC2=O` (stereo partly drawn) [I-2087, Ac-PL3-Asp-Npg-B5-Asp-[2COOH4NH2Ph]Dap-Ala-Ala-Phe-Leu-PyrS2-3Thi-BztA-Gln-NH2], for which the figures for the IC50 in experiment [1] and in experiment [2] were 6500 nM and 26 nM, respectively.
Consider `CC(=O)N1CCC[C@]12CC=CCCCC1(CCCC=CCCCOC(=O)N3CC[C@@](C(=O)N[C@@H](Cc4ccsc4)C(=O)N[C@@H](Cc4csc5ccccc45)C(=O)N[C@H](CCC(N)=O)C(N)=O)(C3)NC(=O)[C@H](CC(C)C)NC(=O)[C@H](Cc3ccccc3)NC(=O)[C@H](C)NC(=O)[C@H](C)NC(=O)[C@H](Cc3cccc(C(=O)O)c3)NC(=O)[C@H](CC(=O)O)NC1=O)NC(=O)[C@H](CC(C)(C)C)NC(=O)[C@H](CC(=O)O)NC2=O` (stereo partly drawn) [I-2088, Ac-PL3-Asp-Npg-B5-Asp-3COOHF-Ala-Ala-Phe-Leu-PyrS2-3Thi-BztA-dGln-NH2], for which the IC50 in experiment [1] stood at 4400 nM; in experiment [2] it was 10 nM.
As to `CC(=O)N1CCC[C@]12CC=CCCCC1(CCCC=CCCCOC(=O)N3CC[C@@](C(=O)N[C@@H](Cc4ccsc4)C(=O)N[C@@H](Cc4csc5ccccc45)C(=O)N[C@H](C)C(N)=O)(C3)NC(=O)[C@H](CC(C)C)NC(=O)[C@H](Cc3ccccc3)NC(=O)[C@H](C)NC(=O)[C@H](C)NC(=O)[C@H](Cc3cccc(C(=O)O)c3)NC(=O)[C@H](CC(=O)O)NC1=O)NC(=O)[C@H](CC(C)(C)C)NC(=O)[C@H](CC(=O)O)NC2=O` (stereo partly drawn) [I-2090, Ac-PL3-Asp-Npg-B5-Asp-3COOHF-Ala-Ala-Phe-Leu-PyrS2-3Thi-BztA-dAla-NH2], the IC50 is 5900 nM in experiment [1] and 11 nM in experiment [2].
For the molecule `CC(=O)N1CCC[C@]12CC=CCCCC1(CCCC=CCCCOC(=O)N3CC[C@@](C(=O)N[C@@H](Cc4ccccc4C(F)(F)F)C(=O)N[C@@H](Cc4csc5ccccc45)C(=O)N[C@H](C)C(N)=O)(C3)NC(=O)[C@H](CC(C)C)NC(=O)[C@H](Cc3ccccc3)NC(=O)[C@H](C)NC(=O)[C@H](C)NC(=O)[C@H](Cc3cccc(C(=O)O)c3)NC(=O)[C@H](CC(=O)O)NC1=O)NC(=O)[C@H](CC(C)(C)C)NC(=O)[C@H](CC(=O)O)NC2=O` (stereo partly drawn) [I-2091, Ac-PL3-Asp-Npg-B5-Asp-3COOHF-Ala-Ala-Phe-Leu-PyrS2-2F3MeF-BztA-dAla-NH2], the results for the concentration for half-maximal inhibition (IC50) in experiment [1] and in experiment [2] were 6200 nM and 49 nM, respectively.
For `CC(=O)N1CCC[C@]12CC=CCCCC1(CCCC=CCCCOC(=O)N3CC[C@@](C(=O)N[C@@H](Cc4ccsc4)C(=O)N[C@@H](Cc4csc5ccccc45)C(=O)N[C@H](CCC(N)=O)C(N)=O)(C3)NC(=O)[C@H](Cc3ccccc3)NC(=O)[C@H](Cc3ccccc3)NC(=O)[C@H](C)NC(=O)[C@H](C)NC(=O)[C@H](Cc3cccc(C(=O)O)c3)NC(=O)[C@H](CC(=O)O)NC1=O)NC(=O)[C@H](CC(C)(C)C)NC(=O)[C@H](CC(=O)O)NC2=O` (stereo partly drawn) [I-2092, Ac-PL3-Asp-Npg-B5-Asp-3COOHF-Ala-Ala-Phe-Phe-PyrS2-3Thi-BztA-dGln-NH2], the IC50 in experiment [1] was 4400 nM; in experiment [2], 15 nM.
